Experimental data from patent publication US6967196B1, “Sulfonamide compounds and uses thereof” (Bristol-Myers Squibb Company, priority 1999, dated 2005).
Where a name gives a salt, the structure may show the parent alone. Read-outs that look alike come from different tables or passages of the source.

Tested on: amyloid β production in transfected H4 (human neuroglioma) cells stably expressing APP constructs
Assay: In vitro cell-based assay of inhibitors of amyloid β production (ELISA)
Settings: amyloid β in medium by ELISA
Method in brief: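 Aβ secreted into the medium was read by sandwich ELISA (monoclonal capture for the Aβ C-terminus, polyclonal detection for the N-terminus) and calibrated on a standard curve. Before this, APP-expressing H4 cells were exposed to compound for ~16 h at an initial 10-100 μM, with actives then retested in dose-response.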

[1] = Table B, transfected H4 cells stably expressing APP, approximately 16 hours incubation, read-out: ACTIVITY (inhibitory concentration IC50, inhibition of amyloid β production)
[2] = Homo sapiens, 16 h, transfected H4 cells stably expressing APP, approximately 16 hours incubation, read-out: ACTIVITY (IC50, inhibition of amyloid β production)
[3] = transfected H4 cells stably expressing APP constructs, approximately 16 hours incubation, read-out: ACTIVITY (IC50, inhibition of amyloid β production)
[4] = transfected H4 cells stably expressing APP, approximately 16 hours incubation, Table B, read-out: ACTIVITY (IC50, inhibition of amyloid β production)
[5] = Homo sapiens, 16 h, transfected H4 cells expressing APP, approximately 16 hours incubation, read-out: ACTIVITY (IC50, inhibition of amyloid β production)
[6] = transfected H4 cells stably expressing APP, approx. 16 h incubation, read-out: ACTIVITY (IC50, inhibition of amyloid β production)
[7] = transfected H4 cells stably expressing APP, approximately 16 hours incubation, read-out: ACTIVITY (IC50, inhibition of amyloid β production)

With CC(=O)Nc1nc(C)c(S(=O)(=O)N(Cc2ccccc2OCCCN2CCCCC2)c2cc(Cl)ccc2Cl)s1 [Example 259, N-{5-[(2,5-dichloro{2-[3-(1-piperidinyl)propoxy]benzyl}anilino)sulfonyl]-4-methyl-1,3-thiazol-2-yl}acetamide Hydrochloride] the IC50 [1] was 25 to 50 nM.
With O=S(=O)(c1ccc(Cl)cc1)N(Cc1ccccc1O)c1ccccc1 [Example 1081, 4-chloro-N-(2-hydroxybenzyl)-N-phenylbenzenesulfonamide] the IC50 [2] was over 10000 nM.
In the case of CC(C)[C@H](NC(=O)CCC[C@@H](C)N(c1cc(Cl)ccc1F)S(=O)(=O)c1ccc(Cl)cc1)C(=O)O [Example 1268, (R)-4-Chloro-N-(5-chloro-2-fluorophenyl)-N-[5-[N-(S)-[1-(carboxy)-2-methylpropyl]amino]-1-methyl-5-oxopentyl]benzenesulfonamide], the IC50 [3] is reported as 100 to 500 nM.
O=S(=O)(c1ccc(Cl)cc1)N(Cc1ccccc1OCCCNC1CC1)c1ccccc1 [Example 297, 4-Chloro-N-{2-[3-(cyclopropylamino)propoxy]benzyl}-N-phenylbenzenesulfonamide Hydrochloride] showed an IC50 [4] of 50 to 100 nM.
CCCNC(=O)OC[C@@H](C)N(c1cc(Cl)ccc1CO)S(=O)(=O)c1ccc(Cl)cc1 [Example 1281] gave an IC50 [5] of at most 25 nM.
With “N-{3-[2-(1-{3-[2-(1-{[(4-chlorophenyl)sulfonyl]-2,5-difluoroanilino}ethyl)phenoxy]butyl}-2-cyclohexyl-N-methylacetamide [Example 686]” the IC50 [6] was 100 to 500 nM.
O=S(=O)(c1ccc(Cl)cc1)N(Cc1ccccc1Cn1ncnn1)c1cc(F)ccc1F [Example 751, 4-chloro-N-(2,5-difluorophenyl)-N-[2-(2H-tetraazol-2-ylmethyl)benzyl]benzenesulfonamide] showed an IC50 (Homo sapiens, 16 h, transfected H4 cells stably expressing APP, approx. 16 h incubation, read-out: ACTIVITY (IC50, inhibition of amyloid β production)) of 100 to 500 nM.
In the case of O=S(=O)(c1ccc(Cl)cc1)N(Cc1ccccc1OCCCN1CCSCC1)c1ccccc1 [Example 937, 4-chloro-N-phenyl-N-{2-[3-(4-thiomorpholinyl)propoxy]benzyl}benzenesulfonamide hydrochloride], the IC50 [2] is reported as over 500 nM.
CC(c1ccccc1OCCCn1ccnc1)N(c1cc(F)ccc1F)S(=O)(=O)c1ccc(Cl)cc1 (centres unmarked) [Example 321, 4-Chloro-N-(2,5-difluorophenyl)-N-1-{2-[3-(1H-imidazol-1-yl)propoxy]phenyl}ethyl)benzenesulfonamide Hydrochloride] was tested, and the IC50 [4] was 50 to 100 nM.
For “N-{3-[2-({[(4-chlorophenyl)sulfonyl]-2,5-difluoroanilino}methyl)phenoxy]propyl}-4-iodo-N-methylbenzamide [Example 765]”, the IC50 [6] was 100 to 500 nM.
“(2E)-N-{4-[2-(1-{[(4-chlorophenyl)sulfonyl]-2,5-difluoroanilino}ethyl)phenoxy]butyl}-N-ethyl-2-butenamide [Example 514]” was tested, and the IC50 [4] was 100 to 500 nM.
CCSCCCc1cc(F)ccc1[C@@H](C)N(c1cc(F)ccc1F)S(=O)(=O)c1ccc(SCC)cc1 [Example 936, N-(2,5-difluorophenyl)-4-(ethylsulfanyl)-N-((1R)-1-{2-[3-(ethylsulfanyl)propyl]-4-fluorophenyl}ethyl)benzenesulfonamide] gave an IC50 [2] of over 500 nM.
C[C@H](CCCS(=O)(=O)N(CCCn1ccnc1)CC1CC1)N(c1cc(Cl)ccc1CO)S(=O)(=O)c1ccc(Cl)cc1 [Example 1236, 4-chloro-N-[5-chloro-2-(hydroxymethyl)phenyl]-N-[4-[N-(cyclopropylmethyl)-N-[3-(1H-imidazol-1-yl)-propyl]aminosulfonyl]-1(R)-methylbutyl]benzenesulfonamide] gave an IC50 (Homo sapiens, 16 h, transfected H4 cells stably expressing APP constructs, approximately 16 hours incubation, read-out: ACTIVITY (IC50, inhibition of amyloid β production)) of 100 to 500 nM.
With “N-{3-[2-(1-{[(4-chlorophenyl)sulfonyl]-2,5-difluoroanilino}ethyl)phenoxy]propyl}-3-nitrobenzamide [Example 723]” the IC50 [6] was 100 to 500 nM.
For “N-{3-[2-(1-{[(4-chlorophenyl)sulfonyl]-2,5-difluoroanilino}ethyl)phenoxy]propyl}-N-methyl-2-naphthalenesulfonamide [Example 671]”, the IC50 [6] was 100 to 500 nM.
Molecule O=S(=O)(c1ccc(Cl)cc1)N(Cc1ccccc1OCCCN1CCC(O)(C(F)(F)F)CC1)c1ccccc1 [Example 833, 4-chloro-N-(2-{3-[4-hydroxy-4-(trifluoromethyl)-1-piperidinyl]propoxy}benzyl)-N-phenylbenzenesulfonamide hydrochloride] has an IC50 [2] of 100 to 500 nM.
With C[C@H](CCCS(=O)(=O)C(C)(C)C)N(c1cc(Cl)ccc1CO)S(=O)(=O)c1ccc(Cl)cc1 [Example 1218] the IC50 [3] was at most 25 nM.
“N-{3-[2-({[(4-chlorophenyl)sulfonyl]-2,5-difluoroanilino}methyl)phenoxy]propyl}-2,4,5-trifluoro-N-methylbenzamide [Example 813]” showed an IC50 [7] of 100 to 500 nM.
“N-{2-[2-(1-{[(4-chlorophenyl)sulfonyl]-2,5-difluoroanilino}ethyl)phenoxy]ethyl}-N-ethylpropanamide [Example 504]” was tested, and the IC50 [4] was 100 to 500 nM.
For CC1CC(C)CN(CCCOc2ccccc2CN(c2ccccc2)S(=O)(=O)c2ccc(Cl)cc2)C1 (centres unmarked) [Example 303, 4-Chloro-N-{2-[3-(3,5-dimethyl-1-piperidinyl)propoxy]benzyl}-N-phenylbenzenesulfonamide Hydrochloride], the IC50 [4] was 50 to 100 nM.
In the case of C[C@H](C(=O)Nc1ccc2[nH]ncc2c1)N(c1cc(Cl)ccc1F)S(=O)(=O)c1ccc(Cl)cc1 [Example 1311], the IC50 [5] is reported as over 500 nM.
Molecule “N-{4-[2-(1-{[(4-chlorophenyl)sulfonyl]-2,5-difluoroanilino}ethyl)phenoxy]butyl}-2-cyclohexyl-N-ethylacetamide [Example 785]” has an IC50 [6] of 100 to 500 nM.
Molecule “N-{2-[2-(1-{[(4-chlorophenyl)sulfonyl]-2,5-difluoroanilino}ethyl)phenoxy]ethyl}-N,2-diethylhexanamide [Example 831]” has an IC50 [7] of 100 to 500 nM.
For C[C@H](O)CCCC(=O)OC(C)(C)C [Example 34, 1,1-Dimethylethyl (5S)-5-hydroxyhexanoate], the IC50 [1] was at most 25 nM.
Cc1ccc(C(=O)N2CCCCC2CCOc2ccccc2CN(c2cc(F)ccc2F)S(=O)(=O)c2ccc(Cl)cc2)cc1 (centres unmarked) [Example 884, 4-chloro-N-(2,5-difluorophenyl)-N-(2-{2-[1-(4-methylbenzoyl)-2-piperidinyl]ethoxy}benzyl)benzenesulfonamide] gave an IC50 [2] of over 500 nM.
Molecule C[C@@H]1CCC[C@H](C)N1CCCOc1ccccc1CN(c1ccccc1)S(=O)(=O)c1ccc(Cl)cc1 [Example 812, 4-chloro-N-(2-{3-(2R, 6S)-2,6-dimethylpiperidinyl]propoxy}benzyl)-N-phenylbenzenesulfonamide hydrochloride] has an IC50 [7] of 100 to 500 nM.
“N-{2-[2-(1-{[(4-chlorophenyl)sulfonyl]-2,5-difluoroanilino}ethyl)phenoxy]ethyl}-3-cyclopentyl-N-methylpropanamide [Example 653]” showed an IC50 [6] of 100 to 500 nM.
Work on C[C@H](CCN1CCCC(S(C)(=O)=O)C1)N(c1cc(Cl)ccc1Cl)S(=O)(=O)c1ccc(Cl)cc1 (stereo partly drawn) [Example 1118, 4-chloro-N-(2,5-dichlorophenyl)-N-[3-[(3-methylsulfonyl)-1-piperidinyl]-1(R)-methylpropyl]benzenesulfonamide] yielded an IC50 [3] of 25 to 50 nM.
For “N-{3-[2-(1-{[(4-chlorophenyl)sulfonyl]-2,5-difluoroanilino}ethyl)phenoxy]butyl}-N-ethyl-2-furamide [Example 708]”, the IC50 [6] was 100 to 500 nM.
For “N-{3-[2-(1-{[(4-chlorophenyl)sulfonyl]-2,5-difluoroanilino}ethyl)phenoxy]propyl}-2,4-dimethoxy-N-methylbenzamide [Example 753]”, the IC50 [6] was 100 to 500 nM.
O=S(=O)(c1ccc(Cl)cc1)N(Cc1ccccc1OCCCN1CCCCCC1)c1ccccc1 [Example 851, N-{2-[3-(1-azepanyl)propoxy]benzyl}-4-chloro-N-phenylbenzenesulfonamide hydrochloride] showed an IC50 [2] of 100 to 500 nM.
For CC(c1ccccc1OCCCN(C)C(=O)c1ccc(-c2ccccc2)cc1)N(c1cc(F)ccc1F)S(=O)(=O)c1ccc(Cl)cc1 (centres unmarked) [Example 840, N-{3-[2-(1-{[(4-chlorophenyl)sulfonyl]-2,5-difluoroanilino}ethyl)phenoxy]propyl}-N-methyl[1,1′-biphenyl]-4-carboxamide], the IC50 [7] was 100 to 500 nM.
Molecule O=S(=O)(c1ccc(Cl)cc1)N(CCc1ccccc1OCCCN1CCCCC1)c1ccccc1 [Example 972, 4-chloro-N-phenyl-N-(2-{2-[3-(1-piperidinyl)propoxy]phenyl}ethyl)benzenesulfonamide hydrochloride] has an IC50 [2] of over 500 nM.
Molecule C[C@H](CCCN1CCCC(S(C)(=O)=O)C1)N(c1cc(Cl)ccc1Cl)S(=O)(=O)c1ccc(Cl)cc1 (stereo partly drawn) [Example 1109, 4-chloro-N-(2,5-dichlorophenyl)-N-[4-[(3-methylsulfonyl)-1-piperidinyl]-1(R)-methylbutyl]benzenesulfonamide] has an IC50 [3] of at most 25 nM.
Work on “2-((1R)-1-{[(4-chlorophenyl)sulfonyl]-2,5-difluoroanilino}ethyl)-5-fluorobenzyl bis(2-methoxyethyl)carbamate [Example 760]” yielded an IC50 [6] of 100 to 500 nM.
